Data from patent US5023079A, “Heptaene V-28-3 antibiotic derivative” (Ajinomoto Co., Inc., priority 1987, dated 1991).

What was measured:
[1] = test system: Candida albicans (strain C3); experiment: Experimental (mouse) candidiasis, survival ratio; format: in vivo, Candida albicans (strain C3) in male ICR-strain mice; details: 1 hr after infection, day-8, groups of 10 mice
Protocol: Male ICR-strain mice, weighing 20-22 g, were used in groups of 10. A 0.2 ml cell suspension of Candida albicans (strain C3) was injected IV via the tail vein, inoculum size being 2.5×10^7 cells/mouse. The test drugs (0.2 ml) were administered IV via the tail vein once at 1 hr after the infection.
The therapeutic effect of the test drugs was expressed as the survival ratio at day-8 after infection.

[2] = Acute toxicity (LD50, IV); details: mouse, in vivo, male ICR-strain mice, survivors at day-5, read-out: LD50 (50% lethal dose)
Protocol: An acute toxicity study was carried out with male ICR-strain mice. LD50 (50% lethal dose) was calculated on the basis of the number of survivors at day-5 after IV administration of the drugs.

Q: For C[C@@H]1[C@H](O)[C@@H](C)/C=C/C=C/C=C/C=C/C=C/C=C/C=C/[C@H](O[C@@H]2O[C@H](C)[C@@H](O)[C@H](N)[C@@H]2O)C[C@@H]2O[C@](O)(C[C@@H](O)C[C@@H](O)[C@H](O)CC[C@@H](O)C[C@@H](O)CC(=O)O[C@H]1C)C[C@H](O)[C@H]2C(=O)O [amphotericin B], which Survival ratio ([1]; 0.125 mg/kg IV once) is on record?
A: 0%

Q: What about the Survival ratio ([1]; 0.25 mg/kg IV once) of the same molecule?
A: 70%

Q: And the Survival ratio ([1]; 0.5 mg/kg IV once)?
A: 100%

Q: And the LD50 at 120 h [2]?
A: 4.1 mg/kg
